Test results from the kinase profiling compilation of Christmann-Franck et al. (2016).

Experiments:
Experiment in all cases: KINOMEscan competition binding
Conditions in all cases: compound 10.0 µM
[1] = target: ADCK3 (human) (UniProt Q8NI60)
[2] = target: BRSK2 (human) (UniProt Q8IWQ3)
[3] = target: CDK14 (human) (UniProt O94921)
[4] = target: CDK15 (human) (UniProt Q96Q40)
[5] = target: CDK16 (human) (UniProt Q00536)
[6] = target: CDK18 (human) (UniProt Q07002)
[7] = target: CIT (human) (UniProt O14578)
Chain of CIT (human) (O14578 whole entry, looked up): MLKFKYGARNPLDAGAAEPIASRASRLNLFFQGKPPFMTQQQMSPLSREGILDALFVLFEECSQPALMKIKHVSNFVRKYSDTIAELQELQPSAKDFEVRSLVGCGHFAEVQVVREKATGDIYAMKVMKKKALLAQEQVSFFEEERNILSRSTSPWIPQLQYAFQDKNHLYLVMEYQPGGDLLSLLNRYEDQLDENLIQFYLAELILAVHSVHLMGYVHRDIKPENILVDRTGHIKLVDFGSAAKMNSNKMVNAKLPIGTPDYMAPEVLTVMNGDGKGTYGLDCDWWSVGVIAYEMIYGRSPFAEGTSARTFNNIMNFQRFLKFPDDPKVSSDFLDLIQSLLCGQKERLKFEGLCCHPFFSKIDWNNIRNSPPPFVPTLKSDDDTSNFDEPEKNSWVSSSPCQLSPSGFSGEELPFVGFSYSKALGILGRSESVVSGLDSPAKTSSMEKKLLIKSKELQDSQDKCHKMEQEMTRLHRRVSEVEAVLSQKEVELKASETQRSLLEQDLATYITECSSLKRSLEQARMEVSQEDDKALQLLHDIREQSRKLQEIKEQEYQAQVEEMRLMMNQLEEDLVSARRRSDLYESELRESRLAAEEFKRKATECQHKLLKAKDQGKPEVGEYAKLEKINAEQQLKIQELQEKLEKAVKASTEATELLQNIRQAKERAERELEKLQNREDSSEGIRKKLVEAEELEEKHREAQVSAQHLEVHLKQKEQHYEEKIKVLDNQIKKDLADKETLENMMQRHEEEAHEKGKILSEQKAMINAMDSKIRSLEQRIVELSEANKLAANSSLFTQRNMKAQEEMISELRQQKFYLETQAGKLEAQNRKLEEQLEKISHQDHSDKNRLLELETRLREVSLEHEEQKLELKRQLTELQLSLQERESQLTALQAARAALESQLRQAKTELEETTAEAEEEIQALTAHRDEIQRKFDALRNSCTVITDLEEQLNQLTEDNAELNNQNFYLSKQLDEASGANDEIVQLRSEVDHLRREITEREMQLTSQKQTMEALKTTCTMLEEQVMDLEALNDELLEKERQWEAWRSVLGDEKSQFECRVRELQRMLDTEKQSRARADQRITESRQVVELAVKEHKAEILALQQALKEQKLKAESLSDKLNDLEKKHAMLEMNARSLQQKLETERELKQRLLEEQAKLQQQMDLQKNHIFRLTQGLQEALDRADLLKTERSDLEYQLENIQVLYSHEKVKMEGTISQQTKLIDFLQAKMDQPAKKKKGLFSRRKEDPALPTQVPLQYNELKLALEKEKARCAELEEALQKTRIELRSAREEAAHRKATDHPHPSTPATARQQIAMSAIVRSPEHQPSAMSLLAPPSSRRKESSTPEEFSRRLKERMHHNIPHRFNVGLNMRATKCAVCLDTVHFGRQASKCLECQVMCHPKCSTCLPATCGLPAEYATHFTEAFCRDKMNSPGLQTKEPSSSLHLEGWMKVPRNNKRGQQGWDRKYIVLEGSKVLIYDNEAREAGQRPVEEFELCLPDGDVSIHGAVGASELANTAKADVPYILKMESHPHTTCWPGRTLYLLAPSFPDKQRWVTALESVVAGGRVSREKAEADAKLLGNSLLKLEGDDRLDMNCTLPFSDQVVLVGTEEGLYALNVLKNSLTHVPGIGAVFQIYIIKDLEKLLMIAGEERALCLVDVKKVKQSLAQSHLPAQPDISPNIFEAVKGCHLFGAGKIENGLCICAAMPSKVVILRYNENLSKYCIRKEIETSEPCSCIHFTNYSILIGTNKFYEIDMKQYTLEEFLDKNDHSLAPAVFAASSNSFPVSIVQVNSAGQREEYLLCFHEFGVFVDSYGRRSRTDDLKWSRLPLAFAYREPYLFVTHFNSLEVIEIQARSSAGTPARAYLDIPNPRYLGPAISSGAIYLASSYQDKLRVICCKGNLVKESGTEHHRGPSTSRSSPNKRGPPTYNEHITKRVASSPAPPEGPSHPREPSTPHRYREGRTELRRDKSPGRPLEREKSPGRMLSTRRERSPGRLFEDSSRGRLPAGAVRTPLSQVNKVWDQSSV

[8] = target: CSF1R (human) (UniProt P07333)
Chain of CSF1R (human) (P07333 whole entry, looked up): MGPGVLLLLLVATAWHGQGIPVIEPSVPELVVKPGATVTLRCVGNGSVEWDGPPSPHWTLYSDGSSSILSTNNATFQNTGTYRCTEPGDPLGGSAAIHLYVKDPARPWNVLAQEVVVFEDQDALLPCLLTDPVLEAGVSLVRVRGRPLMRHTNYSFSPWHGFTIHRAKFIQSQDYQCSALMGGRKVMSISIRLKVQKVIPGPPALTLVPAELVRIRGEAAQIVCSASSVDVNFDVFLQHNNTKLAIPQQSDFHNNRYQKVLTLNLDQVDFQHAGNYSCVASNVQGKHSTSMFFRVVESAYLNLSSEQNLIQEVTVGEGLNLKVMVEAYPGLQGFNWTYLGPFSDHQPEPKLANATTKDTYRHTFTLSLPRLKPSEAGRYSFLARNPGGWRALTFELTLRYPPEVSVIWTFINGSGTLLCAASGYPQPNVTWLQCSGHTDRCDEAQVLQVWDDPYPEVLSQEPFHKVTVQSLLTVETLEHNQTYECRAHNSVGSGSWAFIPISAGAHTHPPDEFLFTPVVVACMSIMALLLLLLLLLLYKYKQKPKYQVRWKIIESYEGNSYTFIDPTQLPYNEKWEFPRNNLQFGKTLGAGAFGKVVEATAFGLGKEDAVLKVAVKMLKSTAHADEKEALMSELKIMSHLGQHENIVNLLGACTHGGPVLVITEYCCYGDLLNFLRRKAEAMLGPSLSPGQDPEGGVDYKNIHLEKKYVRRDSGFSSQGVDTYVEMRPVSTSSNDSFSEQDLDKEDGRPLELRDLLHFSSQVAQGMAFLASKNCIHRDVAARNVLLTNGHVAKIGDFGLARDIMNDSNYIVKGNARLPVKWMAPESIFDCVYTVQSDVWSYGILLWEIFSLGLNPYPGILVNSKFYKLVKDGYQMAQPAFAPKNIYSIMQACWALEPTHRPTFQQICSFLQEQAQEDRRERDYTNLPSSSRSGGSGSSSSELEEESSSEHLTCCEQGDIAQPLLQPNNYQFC

[9] = target: CSK (human) (UniProt P41240)
[10] = target: CSNK1D (human) (UniProt P48730)
[11] = target: EPHA5 (human) (UniProt P54756)
[12] = target: MAP3K4 (human) (UniProt Q9Y6R4)
[13] = target: MAP3K7 (human) (UniProt O43318)
[14] = target: MAPK13 (human) (UniProt O15264)
[15] = target: MAPK14 (human) (UniProt Q16539)
[16] = target: MAPK7 (human) (UniProt Q13164)
[17] = target: MYO3B (human) (UniProt Q8WXR4)
Chain of MYO3B (human) (Q8WXR4 whole entry, looked up): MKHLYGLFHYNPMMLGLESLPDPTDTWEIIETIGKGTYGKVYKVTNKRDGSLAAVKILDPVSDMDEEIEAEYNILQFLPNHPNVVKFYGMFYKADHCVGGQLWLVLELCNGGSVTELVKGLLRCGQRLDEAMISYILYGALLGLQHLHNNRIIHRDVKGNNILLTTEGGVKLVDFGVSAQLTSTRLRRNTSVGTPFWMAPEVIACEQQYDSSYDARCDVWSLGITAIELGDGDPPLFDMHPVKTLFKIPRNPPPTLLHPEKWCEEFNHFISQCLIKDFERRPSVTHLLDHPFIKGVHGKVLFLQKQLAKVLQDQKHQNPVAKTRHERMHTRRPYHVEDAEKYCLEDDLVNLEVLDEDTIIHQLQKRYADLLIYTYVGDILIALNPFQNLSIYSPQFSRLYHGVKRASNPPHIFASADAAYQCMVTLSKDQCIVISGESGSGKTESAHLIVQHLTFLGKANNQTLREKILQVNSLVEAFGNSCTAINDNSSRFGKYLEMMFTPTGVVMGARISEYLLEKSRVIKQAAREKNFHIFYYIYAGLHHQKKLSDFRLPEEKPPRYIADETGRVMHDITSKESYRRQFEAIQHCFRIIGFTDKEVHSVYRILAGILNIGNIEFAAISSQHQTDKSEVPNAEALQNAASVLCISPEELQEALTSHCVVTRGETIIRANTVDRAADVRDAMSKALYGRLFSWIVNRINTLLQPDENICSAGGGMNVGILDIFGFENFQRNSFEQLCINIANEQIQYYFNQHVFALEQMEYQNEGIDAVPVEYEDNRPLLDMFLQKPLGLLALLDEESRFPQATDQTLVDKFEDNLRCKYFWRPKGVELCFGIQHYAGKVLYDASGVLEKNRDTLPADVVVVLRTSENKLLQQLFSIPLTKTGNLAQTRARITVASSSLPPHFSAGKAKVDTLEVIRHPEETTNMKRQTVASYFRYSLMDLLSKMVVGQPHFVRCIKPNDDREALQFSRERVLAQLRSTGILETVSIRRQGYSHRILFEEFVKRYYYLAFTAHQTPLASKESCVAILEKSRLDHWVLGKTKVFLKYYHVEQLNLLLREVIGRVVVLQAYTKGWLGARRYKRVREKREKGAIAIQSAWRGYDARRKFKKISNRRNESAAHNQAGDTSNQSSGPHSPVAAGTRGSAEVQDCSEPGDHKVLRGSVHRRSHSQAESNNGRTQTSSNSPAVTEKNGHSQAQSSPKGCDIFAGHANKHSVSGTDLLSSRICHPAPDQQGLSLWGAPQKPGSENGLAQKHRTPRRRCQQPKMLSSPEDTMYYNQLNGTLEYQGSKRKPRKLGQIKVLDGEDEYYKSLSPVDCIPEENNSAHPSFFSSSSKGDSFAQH

[18] = target: PAK6 (human) (UniProt Q9NQU5)
[19] = target: PDGFRB (human) (UniProt P09619)
[20] = target: PIK3CA (human) (UniProt P42336)
[21] = target: PIK3CB (human) (UniProt P42338)
[22] = target: PLK3 (human) (UniProt Q9H4B4)
[23] = target: PTK2B (human) (UniProt Q14289)
[24] = target: PTK6 (human) (UniProt Q13882)
[25] = target: RAF1 (human) (UniProt P04049)
[26] = target: RPS6KA1 KD2 (human) (UniProt Q15418)
Chain of RPS6KA1 KD2 (human) (Q15418 whole entry, looked up): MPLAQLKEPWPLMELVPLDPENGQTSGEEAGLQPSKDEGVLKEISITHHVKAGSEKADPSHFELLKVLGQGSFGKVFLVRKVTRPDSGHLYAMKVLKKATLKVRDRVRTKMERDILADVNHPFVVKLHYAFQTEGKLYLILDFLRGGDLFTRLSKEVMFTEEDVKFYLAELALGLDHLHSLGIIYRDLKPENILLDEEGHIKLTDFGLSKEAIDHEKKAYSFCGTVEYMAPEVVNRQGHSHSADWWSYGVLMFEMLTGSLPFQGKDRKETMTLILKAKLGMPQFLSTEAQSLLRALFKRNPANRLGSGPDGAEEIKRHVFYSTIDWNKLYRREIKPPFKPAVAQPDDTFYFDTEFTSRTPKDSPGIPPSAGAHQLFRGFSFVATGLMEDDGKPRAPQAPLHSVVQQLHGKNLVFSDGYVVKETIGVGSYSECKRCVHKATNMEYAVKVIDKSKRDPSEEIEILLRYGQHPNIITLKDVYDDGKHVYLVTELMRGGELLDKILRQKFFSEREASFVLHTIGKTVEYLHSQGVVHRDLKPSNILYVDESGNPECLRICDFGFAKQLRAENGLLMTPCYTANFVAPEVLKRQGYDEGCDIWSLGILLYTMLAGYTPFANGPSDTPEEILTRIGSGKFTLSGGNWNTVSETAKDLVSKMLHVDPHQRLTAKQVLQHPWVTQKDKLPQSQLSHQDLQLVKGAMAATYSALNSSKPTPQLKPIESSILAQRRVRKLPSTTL

[27] = target: STK33 (human) (UniProt Q9BYT3)
[28] = target: TAOK1 (human) (UniProt Q7L7X3)
[29] = target: TNK2 (human) (UniProt Q07912)
[30] = target: TNNI3K (human) (UniProt Q59H18)
[31] = target: TXK (human) (UniProt P42681)
[32] = target: TYRO3 (human) (UniProt Q06418)
[33] = target: ULK1 (human) (UniProt O75385)
[34] = target: MAK (human) (UniProt P20794)
[35] = target: MAP3K6 (human) (UniProt O95382)
[36] = target: PI4KB (human) (UniProt Q9UBF8)

SMILES | kinase still bound, per cent of control [1] [%] | kinase still bound, per cent of control [2] [%] | kinase still bound, per cent of control [3] [%] | kinase still bound, per cent of control [4] [%] | kinase still bound, per cent of control [5] [%] | kinase still bound, per cent of control [6] [%] | kinase still bound, per cent of control [7] [%] | kinase still bound, per cent of control [8] [%] | kinase still bound, per cent of control [9] [%] | kinase still bound, per cent of control [10] [%] | kinase still bound, per cent of control [11] [%] | kinase still bound, per cent of control [12] [%] | kinase still bound, per cent of control [13] [%] | kinase still bound, per cent of control [14] [%] | kinase still bound, per cent of control [15] [%] | kinase still bound, per cent of control [16] [%] | kinase still bound, per cent of control [17] [%] | kinase still bound, per cent of control [18] [%] | kinase still bound, per cent of control [20] [%] | kinase still bound, per cent of control [21] [%] | also measured
COc1cc(C(=O)NC2CCN(C)CC2)ccc1Nc1ncc2c(n1)N(C1CCCC1)C(C)CC(=O)N2C (configuration not stated) | 100 | 100 | 100 | 100 | 100 | 100 | 100 | 100 | 100 | 100 | 100 | 100 | 100 | 100 | 100 | 100 | 100 | 100 | 100 | 100 | kinase still bound, per cent of control [19]: 100%; kinase still bound, per cent of control [22]: 0%; kinase still bound, per cent of control [23]: 13%; kinase still bound, per cent of control [24]: 100%; kinase still bound, per cent of control [25]: 100%; kinase still bound, per cent of control [26]: 22%; kinase still bound, per cent of control [27]: 3.6%; kinase still bound, per cent of control [28]: 100%; kinase still bound, per cent of control [29]: 100%; kinase still bound, per cent of control [30]: 100%; kinase still bound, per cent of control [31]: 100%; kinase still bound, per cent of control [32]: 100%; kinase still bound, per cent of control [33]: 100%
OCCCNc1cc(-c2ccnc(Nc3cccc(Cl)c3)n2)ccn1 | 100 | 100 | 100 | 100 | 1.9 | 100 | 100 | 100 | 100 | 100 | 100 | 100 | 100 | 100 | 100 | 100 | 100 | 100 | 100 | 100 | kinase still bound, per cent of control [34]: 4.6%; kinase still bound, per cent of control [35]: 100%; kinase still bound, per cent of control [19]: 100%; kinase still bound, per cent of control [36]: 100%; kinase still bound, per cent of control [22]: 100%; kinase still bound, per cent of control [23]: 100%; kinase still bound, per cent of control [24]: 100%; kinase still bound, per cent of control [25]: 100%; kinase still bound, per cent of control [26]: 100%; kinase still bound, per cent of control [29]: 100%; kinase still bound, per cent of control [30]: 100%; kinase still bound, per cent of control [31]: 100%; kinase still bound, per cent of control [32]: 100%; kinase still bound, per cent of control [33]: 100%
Cn1c(=O)n(-c2ccc(C(C)(C)C#N)cc2)c2c3cc(-c4cnc5ccccc5c4)ccc3ncc21 | 100 | 100 | 100 | 100 | 100 | 100 | 100 | 100 | 100 | 100 | 100 | 100 | 100 | 100 | 100 | 100 | 100 | 100 | 2.8 | 22 | kinase still bound, per cent of control [34]: 100%; kinase still bound, per cent of control [35]: 100%; kinase still bound, per cent of control [36]: 100%; kinase still bound, per cent of control [22]: 100%; kinase still bound, per cent of control [23]: 100%; kinase still bound, per cent of control [24]: 100%; kinase still bound, per cent of control [25]: 100%; kinase still bound, per cent of control [26]: 100%; kinase still bound, per cent of control [27]: 100%; kinase still bound, per cent of control [28]: 100%; kinase still bound, per cent of control [29]: 100%; kinase still bound, per cent of control [30]: 100%; kinase still bound, per cent of control [31]: 100%; kinase still bound, per cent of control [32]: 100%; kinase still bound, per cent of control [33]: 100%
